Reference: patent publication US5962447A, “Benzoxazines for enhancing synaptic response” (The Regents of the University of California, priority 1998, dated 1999)

Tests used:
[1] = Enhancing memory in rats, 8-arm radial maze learning paradigm; assay type: in vivo, rat; conditions: for minimal effective dose: Rattus norvegicus, rats, read-out: Behavioral Dose (threshold dose for enhancing memory); for in vivo enhancement by rotational restriction vs. corresponding rotomer: figure: threshold dose
[2] = test system: AMPA receptors; test: In vitro physiological testing: field EPSPs in rat hippocampal slices (CA1); assay type: cell-based, rat (Sprague-Dawley); conditions: for in vitro enhancement by rotational restriction vs. corresponding rotomer: figure: +50% half-width, vs. substituted benzoyl piperidine rotomers; for +25% Amplitude (estimated concentration required to increase the amplitude of the EPSP to 25% above baseline) / +50% Half-Width (estimated concentration required to increase the width of the EPSP at half-height by 50%): rat hippocampal slice, 35° C., about 15 min perfusion, estimated by interpolation in most cases, extrapolation for others
Procedure: In Vitro Physiological Testing
The physiological effects of the compounds of this invention were determined in vitro with slices of rat hippocampus by measuring excitatory responses (field EPSPs) in hippocampal slices maintained in a recording chamber continuously perfused with artificial cerebrospinal fluid (ACSF). During a 15-30 minute interval, the perfusion medium was switched to one containing various concentrations of the test compounds. Responses collected immediately before and at the end of drug perfusion were superimposed in order to calculate both the percent increase in EPSP amplitude and percent increase in the width of the response at one-half the peak height (half-width).
To conduct these tests, the hippocampus was removed from anesthetized, 2 month old Sprague-Dawley rats, and in vitro slices (400 micrometers thick) were prepared and maintained in an interface chamber at 35° C. using conventional techniques. this is the procedure used by Dunwiddie and Lynch, J. Physiol. […] A bipolar nichrome stimulating electrode was positioned in the dendritic layer (stratum radiatum) of the hippocampal subfield CA1 close to the border of subfield CA3.
Current pulses (0.1 msec) through the stimulating electrode activated a population of the Schaffer-commissural (SC) fibers which arise from neurons in the subdivision CA3 and terminate in synapses on the dendrites of CA1 neurons. Activation of these synapses causes them to release the transmitter glutamate. Glutamate binds to the post-synaptic AMPA receptors which then transiently open an associated ion channel and permit a sodium current to enter the postsynaptic cell. This current results in a voltage in the extracellular space (the field excitatory post-synaptic potential or field "EPSP") which is recorded by a high impedance recording electrode positioned in the middle of the stratum radiatum of CA1.
For the experiments summarized in the table below, the intensity of the stimulation current was adjusted to produce half-maximal EPSPs (typically about 1.5-2.0 mV). Paired stimulation pulses were given every 40 seconds with an interpulse interval of 200 msec. The field EPSPs of the second response were digitized and analyzed to determine amplitude, half-width, and response area. If the responses were stable for 15-30 minutes (baseline), test compounds were added to the perfusion lines for a period of about 15 minutes. The perfusion was then changed back to regular ACSF.
Paired-pulse stimulation was used since stimulation of the SC fibers in part activates interneurons which generate an inhibitory postsynaptic potential (IPSP) in the pyramidal cells of CA1. This feed-forward IPSP typically sets in after the EPSP reaches its peak. The feed-forward IPSP accelerates the repolarization and shortens the decay phase of the EPSP, and thus could partially mask the effects of the test compounds. One of the relevant features of the feed-forward IPSP is that it cannot be reactivated for several hundred milliseconds following a stimulation pulse. This phenomenon can be employed to advantage to eliminate IPSP by delivering paired pulses separated by 200 milliseconds and using the second ("primed") response for data analysis.
The compounds of the invention were assayed in the physiological test system described above for the generation of data presented in the table below. […] Values have been estimated by interpolation in most cases, but by extrapolation from determined values for others.

[3] = test system: AMPA receptor; test: In vitro hippocampal patch preparation, effect on AMPA receptor function; assay type: cell-based; conditions: Chiralpak AD, hexane/50% isopropanol
Procedure: This isomer was determined to be the (+)-enantiomer.

[4] = metabolite of aniracetam; cited from earlier work

Row | Structure (SMILES) | +25% Amplitude (estimated concentration required to increase the amplitude of the EPSP to 25% above baseline) [2] | +50% Half-Width (estimated concentration required to increase the width of the EPSP at half-height by 50%) [2] | further results
1 | O=C1c2cc3c(cc2OC2CCCN12)OCO3 (racemic) [Compound I, (R,S)-1,3-Dioxolo[4,5-g]-2,3-dihydro-1H-pyrrolo[2,1-b][1,3]benzoxazine-10(3aH)-one] | 0.1 mM | 0.05 mM | minimal effective dose [1]: 1 mg/kg; in vivo enhancement by rotational restriction vs. corresponding rotomer [1]: marked enhancement; in vitro enhancement by rotational restriction vs. corresponding rotomer [2]: marked enhancement
2 | O=C1c2cc3c(cc2OC2CCCCN12)OCO3 (racemic) [Compound II, (R,S)-1,3-Dioxolo[4,5-g]-1,2,3,4-tetrahydropyrido[2,1-b][1,3]benzoxazine-11(4aH)-one] | 0.3 mM | 0.2 mM | 
3 | O=C1c2cc3c(cc2OC2CCCN12)OCCO3 (racemic) [Compound III, (R,S)-1,4-Dioxan[2,3-g]-2,3-dihydro-1H-pyrrolo[2,1-b][1,3]benzoxazine-11(3aH)-one] | > 0.03 mM | 0.02 mM | potency in the behavioral task vs. corresponding rotomer and other ampakines of WO 94/02475 [1]: ten times more potent; minimal effective dose [1]: 0.1 mg/kg; in vivo enhancement by rotational restriction vs. corresponding rotomer [1]: marked enhancement; in vitro enhancement by rotational restriction vs. corresponding rotomer [2]: marked enhancement
4 | COc1ccc2c(c1)OC1CCCN1C2=O (racemic) [Compound IV, (R,S)-6-Methoxy-2,3-dihydro-1H-pyrrolo[2,1-b][1,3]benzoxazine-9(3aH)-one] | > 1 mM | 0.4 mM | 
5 | COc1ccc2c(c1)C(=O)N1CCCC1O2 (racemic) [Compound V, (R,S)-7-Methoxy-2,3-dihydro-1H-pyrrolo[2,1-b][1,3]benzoxazine-9(3aH)-one] | 1 mM | 0.25 mM | 
6 | O=C1c2cc3nccnc3cc2OC2CCCN12 (racemic) [Compound VI, (R,S)-Pyrazino[2,3-g]-2,3-dihydro-1H-pyrrolo[2,1-b][1,3]benzoxazine-11(3aH)-one] | 0.1 mM | 0.1 mM | minimal effective dose [1]: 2 mg/kg; in vivo enhancement by rotational restriction vs. corresponding rotomer [1]: marked enhancement; in vitro enhancement by rotational restriction vs. corresponding rotomer [2]: marked enhancement
7 | O=C1c2cc3nccnc3cc2OC2CCCCN12 (racemic) [Compound VII, (R,S)-Pyrazino[2,3-g]-1,2,3,4-tetrahydropyrido[2,1-b] [1,3] benzoxazine-12(4aH)-one] | 0.4 mM | 0.3 mM | 
8 | COc1ccc2c(c1)C(=O)N1CCCC1(C)O2 (racemic) [Compound VIII, (R,S)-7-Methoxy-3a-methyl-2,3-dihydro-1H-pyrrolo[2,1-b][1,3]benzoxazine-9-one] | > 0.3 mM | 0.4 mM | 
9 | O=C1c2cc3c(cc2OC2CCCN12)OCO3 (single isomer, unassigned) [first eluting enantiomer] |  |  | activity of first eluting enantiomer relative to second eluting enantiomer (effect on EPSP) ([2]; Chiralcel OD, hexane/10% isopropanol, in vitro hippocampal slice): at least 10 -fold
10 | O=C1c2cc3c(cc2OC2CCCN12)OCCO3 (single isomer, unassigned) [second eluting enantiomer] |  |  | activity of second eluting enantiomer relative to first eluting enantiomer (effect on AMPA receptor function) [3]: at least 10 -fold
11 | COc1ccc(C(=O)NCCCC(=O)O)cc1 [anisoyl-GABA] |  |  | aniracetam-like effects [4]: no aniracetam-like effects
